Laboratory results: the NIST ThermoML archive (doi:10.1016/j.jct.2016.06.012)

Test: xn = mol fraction of the nth substance listed
Conditions: 100 kPa, Liquid; for viscosity: Capillary tube (Ostwald / Ubbelohde) method; for mass density: Vibrating tube method

CCn1cc[n+](C)c1C.O=S(=O)([N-]S(=O)(=O)C(F)(F)F)C(F)(F)F + O=C1CCCO1
Conditions | mass density [kg/m3] | viscosity [mPa·s]
293.15 K, x1 = 0.0493 | 1186.33 | 2.39
293.15 K, x1 = 0.1001 | 1232.87 | 3.16
293.15 K, x1 = 0.1526 | 1271.98 | 4.27
293.15 K, x1 = 0.2001 | 1301.42 | 5.28
293.15 K, x1 = 0.3001 | 1350.26 | 8.11
293.15 K, x1 = 0.4013 | 1387.19 | 12.59
293.15 K, x1 = 0.5004 | 1415.28 | 19.41
293.15 K, x1 = 0.5995 | 1437.76 | 29.23
293.15 K, x1 = 0.6929 | 1455.24 | 40.61
293.15 K, x1 = 0.814 | 1473.91 | 57.8
293.15 K, x1 = 0.9001 | 1485.09 | 71.36
293.15 K, x1 = 1 | 1496.32 | 89.27
298.15 K, x1 = 0.0493 | 1181.34 | 2.2
298.15 K, x1 = 0.1001 | 1227.92 | 2.88
298.15 K, x1 = 0.1526 | 1267.02 | 3.89
298.15 K, x1 = 0.2001 | 1296.47 | 4.75
298.15 K, x1 = 0.3001 | 1345.33 | 7.21
298.15 K, x1 = 0.4013 | 1382.26 | 10.79
298.15 K, x1 = 0.5004 | 1410.36 | 16.23
298.15 K, x1 = 0.5995 | 1432.85 | 23.73
298.15 K, x1 = 0.6929 | 1450.35 | 32.36
298.15 K, x1 = 0.814 | 1469.03 | 45.73
298.15 K, x1 = 0.9001 | 1480.21 | 56.03
298.15 K, x1 = 1 | 1491.47 | 70.77
303.15 K, x1 = 0.0493 | 1176.42 | 2.02
303.15 K, x1 = 0.1001 | 1222.97 | 2.64
303.15 K, x1 = 0.1526 | 1262.07 | 3.55
303.15 K, x1 = 0.2001 | 1291.53 | 4.31
303.15 K, x1 = 0.3001 | 1340.4 | 6.49
303.15 K, x1 = 0.4013 | 1377.35 | 9.66
303.15 K, x1 = 0.5004 | 1405.48 | 13.87
303.15 K, x1 = 0.5995 | 1427.99 | 19.69
303.15 K, x1 = 0.6929 | 1445.51 | 26.32
303.15 K, x1 = 0.814 | 1464.21 | 36.61
303.15 K, x1 = 0.9001 | 1475.4 | 45.12
303.15 K, x1 = 1 | 1486.67 | 57.02
308.15 K, x1 = 0.0493 | 1171.5 | 1.87
308.15 K, x1 = 0.1001 | 1218.03 | 2.42
308.15 K, x1 = 0.1526 | 1257.12 | 3.23
308.15 K, x1 = 0.2001 | 1286.58 | 3.92
308.15 K, x1 = 0.3001 | 1335.47 | 5.84
308.15 K, x1 = 0.4013 | 1372.45 | 8.44
308.15 K, x1 = 0.5004 | 1400.6 | 11.97
308.15 K, x1 = 0.5995 | 1423.13 | 16.7
308.15 K, x1 = 0.6929 | 1440.66 | 21.94
308.15 K, x1 = 0.814 | 1459.39 | 30.04
308.15 K, x1 = 0.9001 | 1470.6 | 36.72
308.15 K, x1 = 1 | 1481.87 | 46.6
313.15 K, x1 = 0.0493 | 1166.58 | 1.74
313.15 K, x1 = 0.1001 | 1213.09 | 2.24
313.15 K, x1 = 0.1526 | 1252.18 | 2.97
313.15 K, x1 = 0.2001 | 1281.64 | 3.59
313.15 K, x1 = 0.3001 | 1330.56 | 5.24
313.15 K, x1 = 0.4013 | 1367.56 | 7.44
313.15 K, x1 = 0.5004 | 1395.73 | 10.46
313.15 K, x1 = 0.5995 | 1418.28 | 14.19
313.15 K, x1 = 0.6929 | 1435.84 | 18.31
313.15 K, x1 = 0.814 | 1454.58 | 24.98
313.15 K, x1 = 0.9001 | 1465.81 | 30.3
313.15 K, x1 = 1 | 1477.09 | 38.62
318.15 K, x1 = 0.0493 | 1161.65 | 1.62
318.15 K, x1 = 0.1001 | 1208.15 | 2.07
318.15 K, x1 = 0.1526 | 1247.24 | 2.72
318.15 K, x1 = 0.2001 | 1276.71 | 3.27
318.15 K, x1 = 0.3001 | 1325.64 | 4.7
318.15 K, x1 = 0.4013 | 1362.67 | 6.63
318.15 K, x1 = 0.5004 | 1390.87 | 9.21
318.15 K, x1 = 0.5995 | 1413.44 | 12.26
318.15 K, x1 = 0.6929 | 1431.02 | 15.7
318.15 K, x1 = 0.814 | 1449.79 | 21.08
318.15 K, x1 = 0.9001 | 1461.03 | 25.54
318.15 K, x1 = 1 | 1472.32 | 32.33
323.15 K, x1 = 0.0493 | 1156.72 | 1.52
323.15 K, x1 = 0.1001 | 1203.21 | 1.9
323.15 K, x1 = 0.1526 | 1242.31 | 2.5
323.15 K, x1 = 0.2001 | 1271.78 | 3.02
323.15 K, x1 = 0.3001 | 1320.73 | 4.29
323.15 K, x1 = 0.4013 | 1357.79 | 6.05
323.15 K, x1 = 0.5004 | 1386.01 | 8.19
323.15 K, x1 = 0.5995 | 1408.61 | 10.68
323.15 K, x1 = 0.6929 | 1426.21 | 13.74
323.15 K, x1 = 0.814 | 1445.01 | 18.23
323.15 K, x1 = 0.9001 | 1456.26 | 21.94
323.15 K, x1 = 1 | 1467.56 | 27.06
